Source: patent publication US12473249B2, “Aromatic compounds and pharmaceutical uses thereof” (BASF AS, priority 2018, dated 2025)
Marks after values point to notes of the source that are not given here.

What was measured:
Format in all cases: in vivo, mouse
ob/ob AMLN mice = assay: Glycemic control (oral glucose tolerance test, fasting glucose and insulin) in ob/ob AMLN mice; details: 0.3 mmol/kg bw day
Description: (§1) ob/ob mice are consistently fibrosis (liver) prone when cholesterol (2%) and 40% fat (containing 18% trans-fatty acids) and 20% fructose are added to a high-caloric diet (i.e., AMLN diet). ob/ob mice on AMLN diet (termed ‘ob/ob AMLN mice’) develop steatohepatitis and fibrosis within a shorter timeframe (<12 weeks) compared with wild-type C57BL/6 mice (AMLN mice) fed the same diet. ob/ob AMLN mice provide an obese diet-induced model of NASH that also allows the study of effects on glycemic control.
Thirty male ob/ob mice (5 weeks old) were fed the AMLN diet for 15 weeks then randomised into 3 groups of 10 mice/group to receive Compound B or Compound A (both at 0.3 mmol/kg bw day) or no treatment (vehicle) for a further 4 weeks. Assessment of the hepatic expression of key genes regulating plasma lipid concentrations (LDLr), hepatic fibrosis (collA1), bile acid transport/re-uptake (Slc51b and Slc10a2) and inflammation (CD68) was made via RNA sequencing at 4 weeks. […] An additional group of mice (n=5) were also treated with a PPAR-γ agonist (pioglitazone, 30 mg/kg bw day) was also included to compare effects upon bodyweight.

APOE*3Leiden mice = assay: Plasma lipids in high-fat diet fed APOE*3Leiden mice
Description: The APOE*3Leiden mouse expresses a variant of the human apolipoprotein E3 (APOE3), the APOE*3Leiden, in addition to the human apolipoprotein C1 (APOC1).
Studies were performed in APOE*3Leiden mice (13-15 weeks old) placed on a semi-synthetic high fat diet (24% fat w/w) with 0.25% cholesterol w/w. After a 4-week run-in period, mice were sub-divided into groups of 5 mice each and administration of Compound A, Compound B, or vehicle alone was started. Both Compound B and Compound A were administered at a dose of 0.3 mmol/kg bw/day via diet. Sunflower oil (10 ml v/w) was used as a vehicle to facilitate mixing. After 4 weeks of treatment mice were sacrificed by C02 asphyxiation and plasma cholesterol and triglycerides were measured using commercially available kits (Roche*/Hitachi©).
In a further study, performed as described above, the effects of Compound A, Compound B, and Compound C were compared with the effects of Reference Compound 1 ((Z)-3-(pent-2-en-1-yloxy)benzoic acid) and Reference Compound 2 ((Z)-4-(pent-2-en-1-yloxy)benzoic acid) on triglyceride levels. […] The results of this study are described in Example 17.

[1] = tested on: hepatic expression of key genes; assay: Hepatic target gene expression via RNA sequencing in ob/ob AMLN mice; details: 0.3 mmol/kg bw day, 4 weeks treatment
Description: as §1
(§2) Thirty male ob/ob mice (5 weeks old) were fed the AMLN diet for 15 weeks then randomised into 3 groups of 10 mice/group to receive Compound B or Compound A (both at 0.3 mmol/kg bw day) or no treatment (vehicle) for a further 4 weeks. Assessment of the hepatic expression of key genes regulating plasma lipid concentrations (LDLr), hepatic fibrosis (collA1), bile acid transport/re-uptake (Slc51b and Slc10a2) and inflammation (CD68) was made via RNA sequencing at 4 weeks. To assess the effects of Compound B and Compound A on glycemic control, an oral glucose tolerance test (OGTT) was also performed at 3 weeks. An additional group of mice (n=5) were also treated with a PPAR-γ agonist (pioglitazone, 30 mg/kg bw day) was also included to compare effects upon bodyweight.

[2] = Relative bodyweight in ob/ob AMLN mice; details: 0.3 mmol/kg bw day, 4 weeks treatment, FIG. 11
Description: as §1, §2

[3] = high-fat high-cholesterol diet, 4 weeks treatment
[4] = high-fat high-cholesterol diet, 4 weeks treatment, dose 0.1 mmol/kg bw/day

SMILES: CCCCCOc1cccc(C(=O)O)c1C [Compound A, 2-methyl-3-(pentyloxy)benzoic acid]
- total plasma glucose (area-under-the-curve from 0-240 mins) versus vehicle in response to an oral glucose load (ob/ob AMLN mice; after 3 weeks treatment, FIG. 1): significantly reduce
- plasma glucose at 30- and 60-mins versus vehicle in response to an oral glucose load (ob/ob AMLN mice; after 3 weeks treatment, FIG. 2): significantly reduce
- fasting plasma insulin versus vehicle (ob/ob AMLN mice; after 4 weeks treatment, FIG. 3): reduce
- fasting plasma glucose versus vehicle (ob/ob AMLN mice; after 4 weeks treatment, FIG. 4): significantly reduce
- triglyceride levels over 4 weeks (APOE*3Leiden mice; further study with reference compounds, 0.3 mmol/kg bw/day, FIG. 31): significantly reduced
- plasma TG versus vehicle (APOE*3Leiden mice; [3]): significantly reduce
- total plasma cholesterol versus vehicle (APOE*3Leiden mice; [3]): significantly reduce
- Reduction in plasma TG vs control (%) (APOE*3Leiden mice; [4]): 79*** %
- Reduction in plasma cholesterol vs control (%) (APOE*3Leiden mice; [4]): 30*** %
- hepatic expression of Coll al (collagen1a1) versus vehicle ([1]; FIG. 5): significantly reduce
- hepatic expression of Slc10a2 versus vehicle ([1]; FIG. 6): significantly decreases
- hepatic expression of Slc51b versus vehicle ([1]; FIG. 7): significantly decreases
- hepatic expression of ABCC2 versus vehicle ([1]; FIG. 8): significantly increases
- hepatic expression of CYP7A1 ([1]; FIG. 9): reduces
- hepatic expression of CD68 versus vehicle ([1]; FIG. 10): significantly decreases
- expression of hepatic LDLr versus vehicle ([1]; FIG. 12): significantly increase
- relative bodyweight versus vehicle [2]: significantly decreased
